Test results: patent publication US20090197853A1, “METHODS AND COMPOSITIONS OF TREATING CANCER” (priority 2005, published 2009)

Assays:
[1] = system: PC3 prostate cancer cells; assay: Cell viability by propidium iodide exclusion, PC3; type: cell-based
Description: Methods: Cellular Viability—Cell viability was determined by using propidium iodide (PI) flow cytometric analysis. Cells from plateau phase cultures grown in T-25 flasks were harvested as described above, except that cells present in the growth medium and wash solution were isolated by centrifugation and included in the analysis. Cells were resuspended in 1 mL PBS, an aliquot of 3×10^5 cells transferred to a 4 mL tube, and the cells isolated by centrifugation. Cell pellets were resuspended in PBS supplemented with 2 μg/mL propidium iodide (Sigma), incubated for 5 minutes at ambient temperature, and subjected to flow cytometric analysis.

[2] = HPLC analysis of MGd stability in medium from plateau phase cultures; type: physicochemical; conditions: after 24 hours
Description: Results: Studies were performed to determine whether the metallothionein transcript up-regulation observed in the microarray analysis could be a consequence of free gadolinium(III) cation, released from MGd into the cell culture medium. […] Since the microarray analysis indicated strong transcript up-regulation after 4 hours of treatment with drug, this time interval was selected for further investigation of RNA transcript levels. RNA was harvested from plateau phase cultures treated with control vehicle, 50 μM MGd, or 5 μM Gd(OAc)3 for 4 hours. […] Thus, even assuming a 10% loss of drug over the initial 4 hour incubation period, the resulting release of Gd(III) ion into the culture medium would be insufficient to induce the observed metallothionein and ZnT1 transcript levels.

Ramos cells = assay: Gene expression profiling on Human Genome U133 Plus 2.0 Arrays, Ramos cultures; type: cell-based; conditions: 4 hours
Description: Methods: Gene Expression Profiling—MGd (10 μM), Zn(OAc)2 (25 or 50 μM, the combinations, or control (5% mannitol) solution were added to Ramos cultures. Each treatment was performed in triplicate. After 4 hours of incubation, all cultures were washed twice with 0.5% BSA in HBSS and total RNA was isolated and subjected to analysis on Human Genome U133 Plus 2.0 Arrays (Affymetrix, Santa Clara, Calif.). Microarray Suite version 5.0 software (Affymetrix) was used to generate raw gene expression scores and normalize the relative hybridization signal from each experiment. All gene expression scores were set to a minimum value of fifty in order to minimize noise associated with less robust measurements of rare transcripts. Both the parametric Student's t-test and the permutation-based significance analysis of microarrays (SAM) were used to determine genes differentially expressed in treatment versus control groups.

Description for A549 cells: Methods: Cellular Viability. Cell viability was determined by using propidium iodide (PI) flow cytometric analysis. Cells from plateau phase cultures grown in T-25 flasks were harvested as described above, except that cells present in the growth medium and wash solution were isolated by centrifugation and included in the analysis. Cells were resuspended in 1 mL PBS, an aliquot of 3×10^5 cells transferred to a 4 mL tube, and the cells isolated by centrifugation. Cell pellets were resuspended in PBS supplemented with 2 μg/mL propidium iodide (Sigma), incubated for 5 minutes at ambient temperature, and subjected to flow cytometric analysis. Flow cytometry was performed on a FACSCalibur instrument and data were analyzed using the CellQuest Pro software package (BD Biosciences).

SMILES	Increased cell death (propidium iodide exclusion) ([1]; PC3, within 48 hr, at 100 μM zinc) [fold]	Cell viability ([1]; plateau phase PC3, after 24 hr)	Effect of MGd on the cytotoxicity of Zn(OAc)2 (A549 cells)	Apparent loss of drug in medium (HPLC) [2] [%]	MTF-1 regulated genes incl. metallothionein and zinc transporter family transcripts (Ramos cells)
CC(=O)[O-].CC(=O)[O-].[Zn+2] [Zn(OAc)2, Zinc acetate]	2	little effect on cell viability			
CC(=O)[O-].CC(=O)[O-].CCc1c(CC)c2cc3nc(cnc4cc(OCCOCCOCCOC)c(OCCOCCOCCOC)cc4ncc4nc(cc1[n-]2)C(CCCO)=C4C)C(C)=C3CCCO.O.[Gd+3] [MGd, Motexafin gadolinium]			potentiated	4	up-regulation of MTF-1 regulated genes
